The IC50 is the concentration at which inhibition is half-maximal. As usually defined, the inhibition is how much of the control response was suppressed. High values mean strong suppression, low ones little suppression.

Data set [1] has as its system MCF-7 cells. The experiment in a line: MTT assay for cytotoxicity, MCF-7 cells. The following applies: for anti-breast cancer activity (cytotoxicity): MCF-7 cells, 100 µM; for IC50: Homo sapiens, MCF7, MTT, 72 h. The data set is classed as cell-based, human. As to the method: (§1) Dulbecco’s modified Eagle’s medium (DMEM) (Wako Pure Chemical Industries, Osaka, Japan) containing 10% fetal bovine serum (FBS) (Equitech-Bio, Kerrville, TX, USA) was used for the culture of A549 and MCF-7 human cancer cells, while RPMI 1640 (Wako Pure Chemical Industries) containing 10% FBS was used for the culture of Jurkat cells, derived from human leukemia. On the other hand, PBMCs (Precision Bioservices, Frederick, MD, USA) were incubated in RPMI 1640 supplemented with 10% human serum AB (HS) (Gemini, Woodland, CA, USA). All media also incorporated 89 μg/mL of streptomycin (Meiji Seika Pharma, Tokyo, Japan), and cells were maintained at 37 °C in a 95% air and 5% CO2 humidified chamber. The microtiter tissue culture plates (24-well and 96-well) (Iwaki, Asahi Glass Co., Chiba, Japan) were used for cancer cells (4 × 10^4 cells/mL) and PBMCs (5 × 10^5 cells/mL), respectively. Prior to drug treatment, all of these cells were incubated for 72 h. The optimal cell density for cytotoxicity testing was established in preliminary experiments. […] The final concentration of DMSO in the culture medium was adjusted to 1% [61, 62, 63].
(§2) The cellular reduction in MTT (Dojindo Molecular Technologies, Kumamoto, Japan) was measured as described in the literature with minor modifications. […] MTT was then added at a final concentration 0.275 mg/mL and incubated for a further 4 h at 37 °C. The medium was removed and 100 μL DMSO was added to each well to dissolve the formazan crystals. The dissolved crystals were diluted (1:10) with DMSO, and 100 μL of the solution was transferred to a 96-well microtiter plate (Iwaki, Asahi Glass Co.). Absorbance was measured at 570 nm using an Infinitive M1000 microplate spectrophotometer (Tecan, Groding, Austria). Each concentration was tested in triplicate, and the IC50 values were determined as the drug concentrations that reduced absorbance to 50% of the control values.
In general terms: Tetrazolium dyes change colour on reduction, which living cells bring about.

The subject of data set [2] is A549 cells. The conditions noted are these: cited from earlier work.
A further data set has as its system EGFR. The following applies: cited from earlier work; for IC50: read-out: EGFR inhibition IC50.
For data set [3], the system named is A549 cells. The experiment in a line: MTT assay for cytotoxicity, A549 cells. The data set is classed as cell-based, human. The following applies: for anti-NSCLC activity (cytotoxicity): A549 cells, 100 µM; for IC50: Homo sapiens, A549, MTT, 72 h. How it is done: as §1, §2
For data set [4], the system named is MCF-7 cells. The following applies: cited from earlier work.
Another data set concerns Jurkat cells. The experiment in a line: MTT assay for cytotoxicity, Jurkat cells. The following applies: for IC50: Homo sapiens, Jurkat, MTT, 72 h. The format is cell-based, human. As to the method:
as §1, §2

The next data set has as its system PBMCs. The experiment in a line: MTT assay for cytotoxicity, PBMCs (healthy). The data set is classed as cell-based. The conditions noted are these: PBMC, 72 h, healthy cells. How it is done: as §1
The cellular reduction in MTT (Dojindo Molecular Technologies, Kumamoto, Japan) was measured as described in the literature with minor modifications. […] Absorbance was measured at 570 nm using an Infinitive M1000 microplate spectrophotometer (Tecan, Groding, Austria). […]

Data set [5] relates to A549 cells. The experiment in a line: Annexin V/ethidium homodimer III staining for apoptosis, A549 cells. The format is cell-based, human. The conditions noted are these: IC50 concentration, 24 h. As to the method:
(§3) Compound B-4 at an IC50 concentration was administered to A549 and MCF-7 cells for 24 h. After detachment from the plate with 0.05% trypsin and washing twice with 1× binding buffer, the cells were incubated for 20 min at r.t. in the dark with a staining solution bearing 50 μL 1× binding buffer, 4 μL FTIC annexin V solution, 4 μL ethidium homodimer III solution, and 4 μL Hoechst 33342 solution. The cells were washed with 1× binding buffer, fixed with 2% paraformaldehyde, washed with PBS, and analyzed by a Biorevo Fluorescence BZ-9000 (Keyence, Osaka, Japan) integrated fluorescence microscope.

The test system of data set [6] is MCF-7 cells. The experiment in a line: Annexin V/ethidium homodimer III staining for apoptosis, MCF-7 cells. The format is cell-based, human. The following applies: IC50 concentration, 24 h. As to the method:
as §3

A further data set deals with T1, EGFR kinase (Homo sapiens, UniProt P00533).
T1 construct: EGFR kinase (human, recombinant; amino acids 695–end); purchased Promega Corporation V3831
T1 sequence (P00533 695-1210 limits assumed): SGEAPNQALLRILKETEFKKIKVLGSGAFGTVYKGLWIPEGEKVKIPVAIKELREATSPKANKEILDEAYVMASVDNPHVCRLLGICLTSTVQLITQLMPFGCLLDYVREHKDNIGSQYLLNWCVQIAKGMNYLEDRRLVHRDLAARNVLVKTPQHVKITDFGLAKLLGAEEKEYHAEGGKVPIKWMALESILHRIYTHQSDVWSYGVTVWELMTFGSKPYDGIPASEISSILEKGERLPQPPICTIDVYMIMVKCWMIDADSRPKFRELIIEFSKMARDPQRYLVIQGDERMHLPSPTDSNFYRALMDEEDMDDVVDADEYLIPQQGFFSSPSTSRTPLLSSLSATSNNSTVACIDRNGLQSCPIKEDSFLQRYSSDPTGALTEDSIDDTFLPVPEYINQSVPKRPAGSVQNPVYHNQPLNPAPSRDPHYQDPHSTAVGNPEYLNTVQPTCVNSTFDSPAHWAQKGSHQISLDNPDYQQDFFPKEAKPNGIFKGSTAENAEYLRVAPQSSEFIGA
The experiment in a line: EGFR inhibition assay (EGFR Kinase Enzyme System, ADP-Glo). The data set is classed as biochemical. How it is done:
The kinase profiling assay protocol (EGFR Kinase Enzyme System, V3831) was performed following the manufacturer’s instructions (Promega Corporation, Madison, WI, USA) with minor modifications. As per the protocol, 95 μL of 2.5× kinase buffer and 15 μL of 100 μM ATP solution were used for the dilution of the EGFR kinase (human, recombinant; amino acids 695–end) and its substrate (4:1 Glu, Tyr). Kinase reactions were performed in a 384-well plate in the presence of 2 μL of kinase working stock, 2 μL of ATP/substrate working stock, and 1 μL of the test compound solution ([…]) or 5% DMSO solution. After incubating for 2 h at r.t., kinase activity was assessed using the ADP-Glo Kinase Assay (Promega Corporation, Madison, WI, USA) following the manufacturer’s instructions. Specifically, 5 μL of ADP-Glo Reagent was added to each well and incubated for 40 min, followed by the addition of 10 μL of Kinase Detection Reagent and further incubation for 30 min at room temperature. Luminescence was measured using the Infinite M1000 microplate reader (Tecan, Grödig, Austria) with an integration time of 0.5–1 s to evaluate the kinase inhibitory effects of the compounds in a dose-dependent manner.
(In general: ADP-Glo turns the ADP formed in a reaction into a luminescent signal.)

Where [7] appears, read: thiazolyl–pyrazolines, read-out: IC50 A549 cells.
[8] abbreviates: triazoloquinoxaline–chalcone derivatives.
[9] abbreviates: quinoline/chalcone hybrids with 1,2,4-triazole.

Each structure is given as a SMILES string. Values joined by “and” are separate entries in the source; they are usually repeats but may differ in a detail not shown here. Equal values may be shown once. Read-outs that look alike come from different tables or passages of the source.

Regarding `COc1ccc(C2=NN(c3nc(-c4ccc(Cl)cc4)cs3)C(c3cnc(-c4ccc(Cl)cc4)nc3)C2)cc1OC` (centres unmarked) [BH-4, 2-(5-(2-(4-Chlorophenyl)pyrimidin-5-yl)-3-(3,4-dimethoxyphenyl)-4,5-dihydro-1H-pyrazol-1-yl)-4-(4-(chloro)phenyl)thiazole], in the data set on MCF-7 cells [1], the “anti-breast cancer activity (cytotoxicity)” value (shortened to “anti-breast cancer activity”) came out at 38%.

With `Clc1ccc(C2CC(c3ccc4ccccc4c3)=NN2c2nc(-c3ccc(Br)cc3)cs2)cc1` (centres unmarked) [BTT-5], the IC50 with A549 cells [2] (naphthalene-linked pyrazoline–thiazole hybrids, read-out: anti-NSCLC IC50 (A549 cells)) is 9.51 µM. Moreover, the EGFR inhibition in the data set on EGFR (10 µM concentration, 10 µM) is 58% and 58.32%.

Take `COc1ccc(C2=NN(c3nc(-c4ccc(Br)cc4)cs3)C(c3cnc(-c4ccc(Cl)cc4)nc3)C2)cc1OC` (centres unmarked) [BH-5, 2-(5-(2-(4-Chlorophenyl)pyrimidin-5-yl)-3-(3,4-dimethoxyphenyl)-4,5-dihydro-1H-pyrazol-1-yl)-4-(4-(bromo)phenyl)thiazole]: in the data set with A549 cells [3], the “anti-NSCLC activity (cytotoxicity)” value came out at 37%. Also, in the data set with MCF-7 cells [1], the “anti-breast cancer activity” value came out at 39%.

Regarding `COc1ccc(C2CC(c3ccc(OC)c(OC)c3)=NN2c2nc(-c3ccccc3)cs2)cc1` (centres unmarked) [Compound 6e], the IC50 with MCF-7 cells [4] (thiazolyl–pyrazolines) was 7.21 µM; in the data set on EGFR (thiazolyl–pyrazolines) it was 0.009 µM.

Take `CS(=O)(=O)CCNCc1ccc(-c2ccc3ncnc(Nc4ccc(OCc5cccc(F)c5)c(Cl)c4)c3c2)o1` [Lapatinib]: the IC50 with A549 cells [3] amounted to 18.2 ± 3.25 µM; with MCF-7 cells [1] it was 9.71 ± 1.12 µM; with Jurkat cells it was 1.43 ± 0.35 µM; in the data set on PBMCs, 12.7 ± 2.08 µM.

As for `CCOC(=O)c1sc(N2N=C(c3ccc(Cl)cc3Cl)CC2c2ccc(OC)cc2)nc1C` (centres unmarked) [Compound 10b], the figures for the IC50 in the data set on A549 cells [2] (setting [7]) and in the data set on EGFR (thiazolyl–pyrazolines) were 4.22 µM and 0.0407 µM, respectively.

Regarding `N#Cc1ccc(-c2csc(N3N=C(c4ccc(N5CCOCC5)cc4)CC3c3ccc(Cl)cc3)n2)cc1` (centres unmarked) [Compound 3f], the figures for the IC50 with A549 cells [2] (setting [7]), in the data set with MCF-7 cells [4] (thiazolyl–pyrazolines) and in the data set on EGFR (thiazolyl–pyrazolines) were 10.8 µM, 8.05 µM and 4.34 µM, respectively.

Turning to `CCc1nnc2c(Nc3ccc(C(=O)/C=C/c4ccc(OC)cc4)cc3)nc3ccccc3n12` [Compound 7e], the IC50 is 8.23 ± 0.25 µM in the data set with MCF-7 cells [4] (setting [8]) and 0.083 ± 0.04 µM in the data set on EGFR (setting [8]).

As for `COc1ccc(C2=NN(C(N)=S)C(c3cnc(-c4ccc(Cl)cc4)nc3)C2)cc1OC` (centres unmarked) [B-9, 5-(2-(4-chlorophenyl)pyrimidin-5-yl)-3-(3,4-dimethoxyphenyl)-4,5-dihydro-1H-pyrazole-1-carbothioamide], the “anti-NSCLC activity (cytotoxicity)” value in the data set on A549 cells [3] came out at 43%. Further, the “anti-breast cancer activity” value in the data set on MCF-7 cells [1] is reported as 33%.

For `COc1ccc(C(=O)/C=C/c2cnc(-c3ccc(Cl)cc3)nc2)cc1OC` [B-4, (E)-3-(2-(4-chlorophenyl)pyrimidin-5-yl)-1-(3,4-dimethoxyphenyl)prop-2-en-1-one], the “anti-NSCLC activity (cytotoxicity)” value in the data set with A549 cells [3] came out at 70%. For the same molecule, the IC50 with A549 cells [3] was determined as 20.5 ± 2.71 µM; in the data set on MCF-7 cells [1], 6.7 ± 1.02 µM; with Jurkat cells it was 1.5 ± 0.4 µM; in the data set on PBMCs, 68.9 ± 10.3 µM. Besides, the “anti-breast cancer activity” value in the data set with MCF-7 cells [1] is recorded as 70%. In addition, the “SI (Selectivity Index)” value in the data set with Jurkat cells (IC50 for PBMC/IC50 for Jurkat cell line) stood at 45.93. Also, the results for the “cells that underwent apoptosis” value in the data set on A549 cells [5] and in the data set on MCF-7 cells [6] were 11.9% and 10.2%, respectively. Also, on EGFR kinase (1 μM), the EGFR inhibition entry is “weak inhibition”. The molecule also gave an inhibition at 10 µM at EGFR kinase (10 μM) of 46%.

Regarding `COc1ccc(C2CC(c3ccc(Cl)cc3Cl)=NN2c2nc(C)c(C(=O)Nc3ccccc3)s2)cc1OC` (centres unmarked) [Compound 10d], the IC50 in the data set with A549 cells [2] (setting [7]) is 2.92 µM; with EGFR (thiazolyl–pyrazolines) it was 0.0325 µM.

On to `C=CCn1c(SCC(=O)Nc2ccc(C(=O)/C=C/c3ccc(Cl)cc3)cc2)nnc1-c1cc(-c2ccccc2)nc2ccccc12` [Compound 7b], for which the IC50 in the data set on A549 cells [2] (quinoline/chalcone hybrids with 1,2,4-triazole, read-out: IC50 A549 cells) is 3.6 ± 0.05 µM; in the data set with MCF-7 cells [4] (setting [9]), 3.3 ± 0.08 µM; in the data set with EGFR (setting [9]), 1.3 ± 1.2 µM.

With `COc1ccc2nc(Cl)c(C3CC(c4ccc(C)cc4)=NN3c3nc(-c4ccc(F)cc4)cs3)cc2c1` (centres unmarked) [Compound 6c], the IC50 in the data set with MCF-7 cells [4] (thiazolyl–pyrazolines) was 0.227 µM; in the data set with EGFR (thiazolyl–pyrazolines), 0.0318 µM.
